We go through 14 compounds from patent US8133849B2, “Herbicidal compounds” (Syngenta Limited, priority 2007, dated 2012).

Holding throughout (type): in vivo
Assay [1] relates to test plants. The experiment in a line: Example B2 herbicidal action, post-emergence, pots in glasshouse, damage score 0-10 (10=total damage to plant; 0=no damage to plant). The settings on record: Example B2 protocol, after 13 days, result in words. The method, then: Seeds of a variety of test species were sown in standard soil in pots. After 8 days cultivation (post-emergence) under controlled conditions in a glasshouse (at 24/16° C., day/night; 14 hours light; 65% humidity), the plants were sprayed with an aqueous spray solution derived from the formulation of the technical active ingredient in acetone/water (50:50) solution containing 0.5% Tween 20 (polyoxyethelyene sorbitan monolaurate, CAS RN 9005-64-5). The test plants were then grown in a glasshouse under controlled conditions in a glasshouse (at 24/16° C., day/night; 14 hours light; 65% humidity) and watered twice daily. After 13 days, the test was evaluated (10=total damage to plant; 0=no damage to plant).

Assay [2] relates to test plants. The experiment in a line: Example B1 herbicidal action, post-emergence, all test species together. As to conditions: Example B1 protocol, 1000 g/ha, after 9 days, result in words. The method, then: (§1) Seeds of a variety of test species were sown in sterilized standard soil in seed trays each having 96 cells. After cultivation for 8 to 9 days cultivation (post-emergence) under controlled conditions in a climatic chamber (cultivation at 23/17° C., day/night; 13 hours light; 50-60% humidity), the plants were treated with an aqueous spray solution of 1000 mg/l of the active ingredient dissolved in 10% DMSO (dimethyl sulfoxide, CAS RN 67-68-5) as a solvent, equivalent to 1000 g/ha. The plants were grown in the climatic chamber after application at (24/19° C., day/night; 13 hours light; 50-60% humidity) and watered twice daily. After 9 days until the test was evaluated (10=total damage to plant, 0=no damage to plant)

The next assay has as its system Alopecurus myosuroides. As to the kind of experiment: Example B3 herbicidal action, post-emergence, small pots in glasshouse, damage score 0-10. The settings on record: 1000 g/ha, evaluated after 13 days, 10=total damage to plant, 0=no damage to plant. On the procedure:
(§2) Seeds of a variety of test species were sown in sterilized compost in small pots. After cultivation for seven days (post-emergence) in controlled conditions in the glasshouse (at 24/16° C., day/night; 14 hours light; 65% humidity) the plants were sprayed with 1 mg of the active ingredient, formulated in 2.5 ml acetone/water (50:50) solution, which is equivalent to 1000 g/ha. Once the foliage was dry, the pots were kept in the glasshouse (at 24/16° C., day/night; 14 hours light; 65% humidity), and were watered twice daily. After 13 days the test was evaluated (10=total damage to plant, 0=no damage to plant).

Another assay deals with Chenopodium album. Described as above. As to conditions: 1000 g/ha, evaluated after 13 days, 10=total damage to plant, 0=no damage to plant. On the procedure:
as §2

The next assay relates to Amaranthus retroflexus. As to the kind of experiment: Example B1 herbicidal action, post-emergence, seed trays in climatic chamber, damage score 0-10. As to conditions: 1000 g/ha, evaluated after 9 days, 10=total damage to plant, 0=no damage to plant. The method, then: as §1
The test system of the next assay is Nasturtium officinale. The description is as above. As to conditions: 1000 g/ha, evaluated after 9 days, 10=total damage to plant, 0=no damage to plant. On the procedure:
as §1

For the next assay, the system named is Solanum nigrum. The assay is described as above. The settings on record: 1000 g/ha, evaluated after 9 days, 10=total damage to plant, 0=no damage to plant. The method, then:
as §1

A further assay relates to Stellaria media. The description is as above. The settings on record: 1000 g/ha, evaluated after 9 days, 10=total damage to plant, 0=no damage to plant. The method, then:
as §1

Take `CCN1c2nccnc2C(OC(=O)C(C)(C)C)=C(c2ccc(Cl)c(Cl)c2)S1(=O)=O` [Compound C10]: the “damage to the test plants” value in the assay with test plants [1] is recorded as “little or no damage”.
Still for that read-out and setting: in the case of `CC(C)(C)C(=O)OC1=C(c2ccccc2[N+](=O)[O-])S(=O)(=O)N(CC(F)F)c2nccnc21` [Compound C66] it was “little or no damage”.
As to `CC(C)(C)C(=O)OC1=C(c2ccc(Cl)c(Cl)c2)S(=O)(=O)Nc2nccnc21` [Compound B4], the “damage to the test plants” value in the assay on test plants [2] is on record as “little or no damage”.
As for `CCOC(=O)c1ccc(C(F)(F)F)nc1C1=C(O)c2nccnc2N(CCC(F)F)S1(=O)=O` [Compound D58, 2-[1-(3,3-difluoro-propyl)-4-hydroxy-2,2-dioxo-1,2-dihydro-2-λ-6-thia-1,5,8-triaza-naphthalen-3-yl]-6-trifluoromethyl-nicotinic acid ethyl ester], the “damage to the test plants” value in the assay with test plants [1] is on record as “little or no damage”.
As for `C#CCN1c2nccnc2C(O)=C(c2ccccc2[N+](=O)[O-])S1(=O)=O` [Compound D40, 3-(2-nitro-phenyl)-2,2-dioxo-1-prop-2-ynyl-1,2-dihydro-2-λ-6-thia-1,5,8-triaza-naphthalen-4-ol], the “damage to the test plants” value with test plants [1] is “little or no damage”.
Same read-out and setting: in the case of `CCN1c2nccnc2C(OC(=O)C(C)(C)C)=C(c2cccc(C(F)(F)F)c2)S1(=O)=O` [Compound C14] it was “little or no damage”.
`CC(C)(C)C(=O)OC1=C(c2ccc(Cl)cc2Cl)S(=O)(=O)N(CC(F)F)c2nccnc21` [Compound C12, 2,2-dimethyl-propionic acid-3-(2,4-dichloro-phenyl)-1-(2,2-difluoroethyl)-2,2-dioxo-1,2-dihydro-2-λ-6-thia-1,5,8-triaza-naphthalen-4-yl ester]: the “damage to plant, ALOMY” value with Alopecurus myosuroides is given as 6. In addition, in the assay with Chenopodium album, the “damage to plant, CHEAL” value amounted to 9.
Take `CC(C)C(=O)OC1=C(c2c(F)ccc(F)c2Cl)S(=O)(=O)N(C)c2nccnc21` [Compound C9]: the “damage to plant, AMARE” value with Amaranthus retroflexus was 7. In addition, in the assay with Nasturtium officinale, the “damage to plant, NAAOF” value was determined as 6. In addition, in the assay on Solanum nigrum, the “damage to plant, SOLNI” value is reported as 4. Moreover, in the assay on Stellaria media, the “damage to plant, STEME” value was 6.
`CN1c2nccnc2C(OC(=O)C(C)(C)C)=C(c2cc3ccccc3nc2Cl)S1(=O)=O` [Compound C41]: in the assay on Amaranthus retroflexus, the “damage to plant, AMARE” value is 0. In the assay on Nasturtium officinale, the “damage to plant, NAAOF” value is 8. In addition, in the assay with Solanum nigrum, the “damage to plant, SOLNI” value came to 0. In the assay on Stellaria media, the “damage to plant, STEME” value worked out at 4.
For `CN1c2nccnc2C(OC(=O)C(C)(C)C)=C(c2c(F)ccc(F)c2Cl)S1(=O)=O` [Compound C4], in the assay on Amaranthus retroflexus, the “damage to plant, AMARE” value came to 7. For the same compound, in the assay on Nasturtium officinale, the “damage to plant, NAAOF” value is given as 6. Moreover, in the assay on Solanum nigrum, the “damage to plant, SOLNI” value is 5. In addition, the “damage to plant, STEME” value in the assay with Stellaria media stood at 8.
As for `CC(C)C(=O)OC1=C(c2ccc(Cl)cc2Cl)S(=O)(=O)Nc2nccnc21` [Compound B2], the “damage to the test plants” value in the assay on test plants [2] is on record as “little or no damage”.
Regarding `CN1c2nccnc2C(O)=C(c2c(F)ccc(F)c2Cl)S1(=O)=O` [Compound D2], the “damage to plant, AMARE” value with Amaranthus retroflexus is recorded as 7. The “damage to plant, NAAOF” value in the assay on Nasturtium officinale is given as 7. In addition, the “damage to plant, SOLNI” value in the assay with Solanum nigrum was 7. For the same compound, in the assay with Stellaria media, the “damage to plant, STEME” value is 7.
As for `CCN1c2nccnc2C(OC(=O)C(C)(C)C)=C(c2ccc(Cl)cc2Cl)S1(=O)=O` [Compound C5], in the assay on Amaranthus retroflexus, the “damage to plant, AMARE” value is given as 5. Moreover, in the assay with Nasturtium officinale, the “damage to plant, NAAOF” value is given as 8. For the same compound, the “damage to plant, SOLNI” value in the assay with Solanum nigrum turned out to be 1. Besides, in the assay with Stellaria media, the “damage to plant, STEME” value was determined as 7.
The matching figures for `CN1c2nccnc2C(O)=C(c2ccc(Cl)cc2Cl)S1(=O)=O` [Compound D1]: 0, 7, 0 and 8.
